Assay [1] has as its target VEGFR-2 (Homo sapiens, UniProt P35968). Put plainly: biochemical.
In assay [2] the test system is HepG2. Briefly: MTT anti-proliferative assay against HepG2. Type of assay: cell-based. Conditions: Homo sapiens, HepG2, read-out: HepG2 IC50. On the technique in general: Tetrazolium assays rely on reduction of a dye to a coloured formazan, in cell work by metabolically active cells.
The subject of assay [3] is MCF-7. Put plainly: MTT anti-proliferative assay against MCF-7. Format: cell-based. The following applies: Homo sapiens, MCF7, read-out: MCF-7 IC50.
Assay [4] relates to Vero cells. Briefly: In vitro safety assay on normal Vero cells. Format: cell-based.
The test system of assay [5] is MCF-7 cells. Briefly: Annexin-V/propidium iodide apoptosis analysis. Type of assay: cell-based, Human.
Assay [6] has as its system MCF-7 cells. Put plainly: Cell cycle analysis by flow cytometry. Type of assay: cell-based, Human. In general terms: A flow cytometer gives signals particle by particle.
Assay [7] deals with MCF-7 cells. Put plainly: Wound healing. Type of assay: cell-based, Human.

VEGFR-2, sequence (P35968 20-1356): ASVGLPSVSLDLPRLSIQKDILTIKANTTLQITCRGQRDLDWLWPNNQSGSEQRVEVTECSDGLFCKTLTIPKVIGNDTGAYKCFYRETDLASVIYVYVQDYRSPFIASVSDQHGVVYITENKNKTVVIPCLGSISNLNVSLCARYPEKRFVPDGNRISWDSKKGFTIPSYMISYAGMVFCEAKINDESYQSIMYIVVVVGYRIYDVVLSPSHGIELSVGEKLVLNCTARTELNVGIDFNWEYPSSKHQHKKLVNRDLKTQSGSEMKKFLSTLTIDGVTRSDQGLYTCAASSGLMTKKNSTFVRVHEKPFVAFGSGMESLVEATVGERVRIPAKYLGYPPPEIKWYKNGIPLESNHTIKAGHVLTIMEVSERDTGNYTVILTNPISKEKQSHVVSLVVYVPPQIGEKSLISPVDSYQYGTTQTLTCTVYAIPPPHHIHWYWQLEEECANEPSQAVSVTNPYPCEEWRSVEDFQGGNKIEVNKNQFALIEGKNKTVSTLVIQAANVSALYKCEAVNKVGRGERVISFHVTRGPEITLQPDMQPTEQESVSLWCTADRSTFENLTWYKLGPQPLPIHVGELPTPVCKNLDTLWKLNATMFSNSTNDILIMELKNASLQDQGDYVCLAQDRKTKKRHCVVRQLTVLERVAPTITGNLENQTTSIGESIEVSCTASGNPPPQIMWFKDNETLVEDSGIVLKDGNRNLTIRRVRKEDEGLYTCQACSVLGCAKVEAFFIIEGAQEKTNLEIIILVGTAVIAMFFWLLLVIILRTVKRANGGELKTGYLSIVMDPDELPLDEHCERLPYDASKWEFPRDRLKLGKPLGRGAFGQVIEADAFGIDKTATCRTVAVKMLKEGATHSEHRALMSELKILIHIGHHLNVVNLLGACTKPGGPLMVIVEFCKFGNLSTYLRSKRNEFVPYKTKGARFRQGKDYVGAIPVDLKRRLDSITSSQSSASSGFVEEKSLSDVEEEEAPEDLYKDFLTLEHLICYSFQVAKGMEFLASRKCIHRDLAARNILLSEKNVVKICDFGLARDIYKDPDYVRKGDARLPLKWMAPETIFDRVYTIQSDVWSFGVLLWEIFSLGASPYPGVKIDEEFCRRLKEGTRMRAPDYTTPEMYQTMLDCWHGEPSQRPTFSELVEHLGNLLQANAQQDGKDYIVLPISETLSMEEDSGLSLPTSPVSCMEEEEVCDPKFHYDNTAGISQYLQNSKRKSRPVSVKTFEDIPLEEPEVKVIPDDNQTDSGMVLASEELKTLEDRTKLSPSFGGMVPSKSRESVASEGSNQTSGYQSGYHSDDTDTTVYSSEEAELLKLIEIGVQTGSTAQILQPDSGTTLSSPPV

For the molecule `O=C(CN1C(=O)SC(=Cc2ccccc2Cl)C1=O)Nc1ccc(C(=O)NNC(=O)c2ccccc2O)cc1` [Compound 20, 2-(5-(2-Chlorobenzylidene)-2,4-dioxothiazolidin-3-yl)-N-(4-(2-(2-hydroxybenzoyl) hydrazine-1-carbonyl)phenyl)acetamide], the half-inhibitory concentration (IC50) was 0.21 ± 0.009 µM in assay [1], 1.14 ± 0.03 µM in assay [2] and 0.66 ± 0.03 µM in assay [3].

Turning to `O=C(CN1C(=O)SC(=Cc2ccc(Cl)cc2Cl)C1=O)Nc1ccc(C(=O)Nc2cccc(Cl)c2)cc1` [Compound 21, N-(3-chlorophenyl)-4-(2-(5-(2,4-dichlorobenzylidene)-2,4-dioxothiazolidin-3-yl)acetamido)benzamide], the IC50 in assay [1] was found to be 1.66 ± 0.07 µM; in assay [2], 0.84 ± 0.01 µM; in assay [3], 0.68 ± 0.01 µM.

Take `O=C(CN1C(=O)SC(=Cc2ccc(Cl)cc2Cl)C1=O)Nc1ccc(C(=O)NNC(=O)c2ccccc2O)cc1` [Compound 24, 2-(5-(2,4-Dichlorobenzylidene)-2,4-dioxothiazolidin-3-yl)-N-(4-(2-(2-hydroxybenzoyl) hydrazine-1-carbonyl)phenyl)acetamide]: the IC50 in assay [1] is 0.203 ± 0.009 µM; in assay [2], 0.6 ± 0.02 µM; in assay [3], 0.65 ± 0.01 µM.

As for `O=C(CN1C(=O)SC(=Cc2ccccc2Cl)C1=O)Nc1ccc(C(=O)NNC(=O)c2cccc(Cl)c2)cc1` [Compound 19, N-(4-(2-(3-chlorobenzoyl)hydrazine-1-carbonyl)phenyl)-2-(5-(2-chlorobenzylidene)-2,4dioxothiazolidin-3-yl)acetamide], the 50% inhibitory concentration (IC50) in assay [1] turned out to be 0.323 ± 0.014 µM; in assay [2], 3.06 ± 0.02 µM; in assay [3], 2.29 ± 0.19 µM.

Turning to `O=C(CN1C(=O)SC(=Cc2ccccc2Cl)C1=O)Nc1ccc(C(=O)NNc2ccccc2)cc1` [Compound 18, 2-(5-(2-Chlorobenzylidene)-2,4-dioxothiazolidin-3-yl)-N-(4-(2-phenylhydrazine-1-carbonyl)phenyl)acetamide], the IC50 is 2.66 ± 0.112 µM in assay [1], 4.7 ± 0.1 µM in assay [2] and 1.76 ± 0.02 µM in assay [3].

Regarding `O=C(CN1C(=O)SC(=Cc2ccc(Cl)cc2Cl)C1=O)Nc1ccc(C(=O)NNC(=O)c2ccccc2)cc1` [Compound 22, N-(4-(2-benzoylhydrazine-1-carbonyl)phenyl)-2-(5-(2,4-dichlorobenzylidene)-2,4-dioxothiazolidin-3-yl)acetamide], the IC50 was determined as 0.079 ± 0.003 µM in assay [1], 2.04 ± 0.06 µM in assay [2] and 1.21 ± 0.04 µM in assay [3]. Moreover, the “Selectivity index HepG2” value in assay [4] (IC50 Vero divided by IC50 HepG2) was 1.95. The “Selectivity index MCF-7” value in assay [4] (IC50 Vero divided by IC50 MCF-7) worked out at 3.28. Further, the “Increase of early apoptosis compared to untreated cells” value in assay [5] (MCF-7, 1.21 μM) was “about 76 times”. For the same molecule, the “Increase of late apoptosis compared to untreated cells” value in assay [5] (MCF-7, 1.21 μM) is “about 90 fold”. In addition, in assay [5] (MCF-7, 1.21 μM, 72 h, control 0.15), the “Apoptosis Late (Right Top)” value turned out to be 13.53%. For the same molecule, the “Apoptosis Early (Right Bottom)” value in assay [5] (MCF-7, 1.21 μM, 72 h, control 0.29) is on record as 22.15%. For the same molecule, the “Necrosis (Left Top)” value in assay [5] (MCF-7, 72 h treatment, control 2.22) is on record as 5.34. The “Cell cycle arrest phase” value in assay [6] (MCF-7, 1.21 μM) is “S phase”. The “Cell cycle distribution G2/M” value in assay [6] (MCF-7, 1.21 μM for 72 h, control 16.35) came to 13.77%. In assay [6] (MCF-7, 1.21 μM for 72 h, control 24.61), the “Cell cycle distribution S” value was found to be 33.84%. The “Cell cycle distribution G0-G1” value in assay [6] (MCF-7, 1.21 μM for 72 h, control 59.04) came to 52.39%. For the same molecule, the RM in assay [7] (MCF-7, 48 h, untreated 16.58) stood at 6.16 um. In assay [7] (MCF-7, 48 h, untreated 81.62), this molecule had a Wound closure of 30.20 % um^2. This molecule came in with an Area difference in assay [7] (MCF-7, 48 h, untreated 795.83) of 295.83%. Moreover, the “Reduction in scratch width” value in assay [7] (MCF-7, after 48 h, untreated 81.62 %) is given as 30.20%. Also, the “Scratch width at 48 h” value in assay [7] (MCF-7, untreated 178.24) was found to be 682.93. For the same molecule, in assay [7] (MCF-7, untreated 179.17), the “Scratch area at 48 h” value is recorded as 683.83. Moreover, the “Scratch width at 24 h” value in assay [7] (MCF-7, untreated 644.43) came out at 904.16. In addition, the “Scratch area at 24 h” value in assay [7] (MCF-7, untreated 645.50) amounted to 905.17. Besides, the “Scratch width at 0 h” value in assay [7] (MCF-7, untreated 974.11) was found to be 978.78. In addition, the “Scratch area at 0 h” value in assay [7] (MCF-7, untreated 975.00) is on record as 979.67.

Turning to `O=C(CN1C(=O)SC(=Cc2ccc(Cl)cc2Cl)C1=O)Nc1ccc(C(=O)NNC(=O)c2cccc(Cl)c2)cc1` [Compound 23, N-(4-(2-(3-chlorobenzoyl)hydrazine-1-carbonyl)phenyl)-2-(5-(2,4-dichlorobenzylidene)-2,4-dioxothiazolidin-3-yl)acetamide], the IC50 in assay [1] was found to be 0.328 ± 0.014 µM; in assay [2] it was 1.18 ± 0.01 µM; in assay [3], 0.95 ± 0.01 µM.

By IC50 is commonly meant the concentration needed to halve the response being measured.

Source of the values: publication PMC10828660 (Heliyon, 2024).
